Read-outs that look alike come from different tables or passages of the source. Values belong to the molecule of their own block, whether it stands above or below them. Peptide text beside a SMILES is read from it. * marks the point of attachment. FITC = O=C1OC2(c3ccc(O)cc3Oc3cc(O)ccc32)c2ccc(NC(=S)*)cc21
Columns and labels:
Assay type in all cases: binding
[1] = target: T1, USP22 zf-UBP domain (Homo sapiens, UniProt Q9UPT9); assay: FP-monitored affinity measurements, USP22 zf-UBP; details: USP22_zf-UBP
T1 construct: USP22_zf-UBP; Q9UPT9; zf-UBP; 37; 130; 6xHis-GST (N, cleaved yes); made in house; host or cells: Escherichia coli BL21-Gold (DE3)
T1 sequence (Q9UPT9 37-130): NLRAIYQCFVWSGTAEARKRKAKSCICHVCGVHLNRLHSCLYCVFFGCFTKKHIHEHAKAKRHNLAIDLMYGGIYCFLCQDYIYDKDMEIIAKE
Method: (§1) Proteins were expressed in Escherichia coli (E.coli) BL21-Gold (DE3) bacteria. The cDNAs encoding N-terminal 6-histidine-glutathione S-transferase tagged (6xHis-GST), 6xHis-tagged or GST-tagged protein domains in pETM33, pETM11, pGEX6P1 expression vectors respectively, were obtained from Genescript or kindly provided by MRC-PPU (Suppl. Data 1) The bacteria were transformed with the plasmid and grew at 37 °C in 2YT (5 g/L NaCl, 16 g/L tryptone and 10 g/L yeast extract) supplemented with Kanamycin (30 μg/mL) until reaching an OD600 of 0.7. Protein expression was induced with 0.3 mM isopropyl β-D-1 thiogalactopyranoside (IPTG) for 18 h at 18 °C while shaking. For zinc-finger domains, 50 μM of ZnSO4 was added during expression. The bacterial cultures were pelleted for 15 minutes at 4000 x g at 4 °C and stored at −20 °C until purification. The pellets were resuspended in lysis buffer (1× phosphate-buffered saline (PBS), 0.5 % Triton-X, 5 mM MgCl2, 10 μg/mL lysozyme, cOmplete^TM EDTA-free protease inhibitor cocktail (Roche), 10 μg/mL DNAseI) and incubated for 1 h shaking at 4 °C. […] The supernatant was incubated with glutathione (GSH) Sepharose (Cytiva) or Ni2+ Sepharose (Cytiva) for 1 h at 4 °C while shaking. The beads with the bound protein were washed with 1x PBS and eluted with 10 mM reduced glutathione in 50 mM Tris pH 8.0. For fluorescence polarization experiments, the proteins were not eluted from the beads, and the 6xHis-GST tag was cleaved overnight on GSH Sepharose beads at 4 °C while shaking with PreScission Protease in cleavage buffer (50 mM Tris pH 7.5, 150 mM NaCl, 1 mM DTT). The sample containing the cleaved domain was separated from the tag and protease and buffer-exchanged to 50 mM sodium phosphate buffer pH 7.4 with 1 mM DTT using a PD-10 desalting column (Cytiva). The purity and size of the proteins were analyzed by SDS-PAGE electrophoresis.
(§2) The measurements were performed at room temperature in a non-binding black half area 96-well plate (Corning) with a total volume of 50 μL per well. Peptides were obtained from GeneCust (France) with >95% purity. FITC-labeled peptides (N-terminally FITC-labeled without spacer and C-terminally amidated) were dissolved in dimethyl sulfoxide (DMSO), and unlabeled peptides (N-terminally acetylated and C-terminally amidated) were dissolved in 50 mM phosphate buffer pH 7.4. Saturation measurements were performed using a serial dilution of the protein domains in phosphate buffer (25 μL) and the addition of 10 nM FITC-labeled peptide (in phosphate buffer supplemented with 2 mM DTT) (25 μL). […] All measurements were performed in three technical replicates. The data were analyzed using GraphPad Prism version 9.2.0 for MacOS (GraphPad Software, San Diego, California USA, www.graphpad.com). The saturation curves were fitted to the quadratic equation, and the displacement curves were fitted to a sigmoidal dose-response equation as described previously.

[2] = target: T2, USP20 DUSP2 N805A (Homo sapiens, UniProt Q9Y2K6, N805A); assay: FP-monitored affinity measurements, USP20 DUSP2 single mutant
T2 construct: USP20_DUSP2; Q9Y2K6; DUSP2; 776; 894; 6xHis-GST (N, cleaved yes); made in house; host or cells: Escherichia coli BL21-Gold (DE3)
T2 sequence (Q9Y2K6 with tags, fused parts or gaps N805A): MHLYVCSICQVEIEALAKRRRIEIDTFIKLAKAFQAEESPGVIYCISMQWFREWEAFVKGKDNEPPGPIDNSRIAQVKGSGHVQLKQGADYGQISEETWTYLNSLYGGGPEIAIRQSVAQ
Method: (§3) Proteins were expressed in Escherichia coli (E.coli) BL21-Gold (DE3) bacteria. The cDNAs encoding N-terminal 6-histidine-glutathione S-transferase tagged (6xHis-GST), 6xHis-tagged or GST-tagged protein domains in pETM33, pETM11, pGEX6P1 expression vectors respectively, were obtained from Genescript or kindly provided by MRC-PPU (Suppl. Data 1) The bacteria were transformed with the plasmid and grew at 37 °C in 2YT (5 g/L NaCl, 16 g/L tryptone and 10 g/L yeast extract) supplemented with Kanamycin (30 μg/mL) until reaching an OD600 of 0.7. Protein expression was induced with 0.3 mM isopropyl β-D-1 thiogalactopyranoside (IPTG) for 18 h at 18 °C while shaking. For zinc-finger domains, 50 μM of ZnSO4 was added during expression. […] For fluorescence polarization experiments, the proteins were not eluted from the beads, and the 6xHis-GST tag was cleaved overnight on GSH Sepharose beads at 4 °C while shaking with PreScission Protease in cleavage buffer (50 mM Tris pH 7.5, 150 mM NaCl, 1 mM DTT). […] The purity and size of the proteins were analyzed by SDS-PAGE electrophoresis.
(§4) The measurements were performed at room temperature in a non-binding black half area 96-well plate (Corning) with a total volume of 50 μL per well. […] The data were analyzed using GraphPad Prism version 9.2.0 for MacOS (GraphPad Software, San Diego, California USA, www.graphpad.com). […]

[3] = target: T3, USP20 DUSP2 K833E-K835E (Homo sapiens, UniProt Q9Y2K6, K833E/K835E); assay: FP-monitored affinity measurements, USP20 DUSP2 double mutant
T3 construct: USP20_DUSP2; Q9Y2K6; DUSP2; 776; 894; 6xHis-GST (N, cleaved yes); made in house; host or cells: Escherichia coli BL21-Gold (DE3)
T3 sequence (Q9Y2K6 with tags, fused parts or gaps K833E/K835E): as the sequence (Q9Y2K6 with tags, fused parts or gaps N805A) above, with A31N, K59E, K61E counted along it
Method: as §3, §4

[4] = target: T4, USP11 DUSP-UBL domain (Homo sapiens, UniProt P51784); assay: FP-based affinity measurements, USP11 DUSP-UBL
T4 construct: USP11_UBL; P51784; UBL; 6xHis-GST (N, cleaved yes); made in house; host or cells: Escherichia coli BL21-Gold (DE3)
T4 sequence (P51784 67-288): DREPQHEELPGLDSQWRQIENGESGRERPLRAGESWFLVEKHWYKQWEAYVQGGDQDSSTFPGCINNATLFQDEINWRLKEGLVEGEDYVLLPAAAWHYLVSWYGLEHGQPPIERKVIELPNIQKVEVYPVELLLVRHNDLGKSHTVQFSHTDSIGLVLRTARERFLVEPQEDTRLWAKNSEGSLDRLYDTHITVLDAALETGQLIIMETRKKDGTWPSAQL
Method: as §1
as §2, with “The saturation curves were fitted to the quadratic equation, and the displacement curves were fitted to a sigmoidal dose-response equation as described previously.” left out

[5] = target: T5, USP20 DUSP2 domain (Homo sapiens, UniProt Q9Y2K6); assay: FP-monitored affinity measurements, USP20 DUSP2; details: USP20_DUSP2; direct FP titration (saturation) of the FITC-labelled peptide; read-out: KD
T5 construct: USP20_DUSP2; Q9Y2K6; DUSP2; 776; 894; 6xHis-GST (N, cleaved yes); made in house; host or cells: Escherichia coli BL21-Gold (DE3)
T5 sequence (Q9Y2K6 with tags, fused parts or gaps): as the sequence (Q9Y2K6 with tags, fused parts or gaps N805A) above, with A31N counted along it
Method: as §1, §2

Kd ([1]; direct FP titration (saturation) of the FITC-labelled peptide): 1 µM
Molecule: CC[C@H](C)[C@H](NC(=O)[C@H](Cc1c[nH]c2ccccc12)NC(=O)[C@H](CO)NC(=O)[C@H](CO)NC(=O)[C@H](Cc1c[nH]c2ccccc12)NC(=O)[C@@H]1CCCN1C(=O)[C@H](CCCCN)NC(=O)CNC(=O)[C@H](CC(C)C)NC(=O)[C@H](Cc1ccccc1)NC(=O)[C@H](C)NC(=O)[C@H](CCC(=O)O)NC(=O)[C@@H]1CCCN1C(=O)[C@H](CO)NC(=O)[C@@H]1CCCN1C(=O)[C@@H](NC(=S)Nc1ccc2c(c1)C(=O)OC21c2ccc(O)cc2Oc2cc(O)ccc21)C(C)C)C(=O)N[C@@H](CC(=O)O)C(=O)N[C@@H](C)C(=O)N[C@@H](C)C(=O)N[C@@H](CCCCN)C(=O)N[C@@H](CC(C)C)C(=O)N[C@@H](Cc1c[nH]cn1)C(N)=O [FITC-ATXN7L1_36-57] ({FITC}-VPSPEAFLGKPWSSWIDAAKLH-NH2)

Kd ([2]; FP, FITC-labeled probe peptide, single mutant domain (Fig. 5F), technical triplicate, read-out: KD, USP20 DUSP2 N805A with FITC-labeled probe peptide): > 130 µM | Kd ([3]; FP, FITC-labeled probe peptide, double mutant domain (Fig. 5F), technical triplicate, read-out: KD, USP20 DUSP2 K833E-K835E with FITC-labeled probe peptide): > 290 µM
Molecule: CC[C@H](C)[C@H](NC(=O)[C@H](CC(N)=O)NC(=O)[C@H](Cc1c[nH]c2ccccc12)NC(=O)[C@H](C)NC(=O)[C@H](CC(C)C)NC(=O)[C@H](CC(=O)O)NC(=O)[C@H](CC(=O)O)NC(=O)[C@H](CC(=O)O)NC(=O)[C@H](CO)NC(=S)Nc1ccc2c(c1)C(=O)OC21c2ccc(O)cc2Oc2cc(O)ccc21)C(=O)N[C@@H](C)C(=O)N1CCC[C@H]1C(=O)N[C@@H](CCC(N)=O)C(=O)NCC(=O)N[C@@H](CC(C)C)C(=O)N[C@@H](CCC(N)=O)C(N)=O [FITC-GPR137B348-362] ({FITC}-SDDDLAWNIAPQGLQ-NH2)

Kd ([4]; FP saturation, FITC-labeled peptide, technical triplicates, read-out: KD, USP11 DUSP-UBL, labeled peptide (direct binding)): > 290 µM
Molecule: CC[C@H](C)[C@H](NC(=O)[C@H](Cc1c[nH]c2ccccc12)NC(=O)[C@H](CC(=O)O)NC(=O)[C@@H]1CCCN1C(=O)[C@H](Cc1ccc(O)cc1)NC(=O)[C@@H](NC(=O)[C@@H](NC(=O)[C@H](C)NC(=O)[C@H](CO)NC(=S)Nc1ccc2c(c1)C(=O)OC21c2ccc(O)cc2Oc2cc(O)ccc21)C(C)C)[C@@H](C)O)C(=O)NCC(=O)N[C@@H](CCC(N)=O)C(=O)N[C@@H](CO)C(=O)N[C@@H](Cc1ccc(O)cc1)C(=O)N[C@@H](CO)C(=O)N[C@@H](CCC(=O)O)C(=O)N[C@H](C(N)=O)C(C)C [FITC-ORA1] ({FITC}-SAVTYPDWIGQSYSEV-NH2)

Kd ([4]; USP11_DUSP_UBL, direct FP titration (saturation) of the FITC-labelled peptide, read-out: KD): ~294 µM
Molecule: CC[C@H](C)[C@H](NC(=O)[C@H](Cc1c[nH]c2ccccc12)NC(=O)[C@H](CC(=O)O)NC(=O)[C@@H]1CCCN1C(=O)[C@H](Cc1ccc(O)cc1)NC(=O)[C@@H](NC(=O)[C@@H](NC(=O)[C@H](C)NC(=O)[C@H](CO)NC(=S)Nc1ccc2c(c1)C(=O)OC21c2ccc(O)cc2Oc2cc(O)ccc21)C(C)C)[C@@H](C)O)C(=O)NCC(=O)N[C@@H](CCC(N)=O)C(=O)N[C@@H](CO)C(=O)N[C@@H](Cc1ccc(O)cc1)C(=O)N[C@@H](CO)C(=O)N[C@@H](CCC(=O)O)C(=O)N[C@H](C(N)=O)C(C)C [FITC-ORAI1] ({FITC}-SAVTYPDWIGQSYSEV-NH2)

Kd [5]: 5.14 µM | Kd ([2]; USP20_DUSP2_N805A, direct FP titration (saturation) of the FITC-labelled peptide, read-out: KD): ~140 µM | Kd ([3]; USP20_DUSP2_K833E/K835E, direct FP titration (saturation) of the FITC-labelled peptide, read-out: KD): ~293 µM
Molecule: CC[C@H](C)[C@H](NC(=O)[C@H](CC(N)=O)NC(=O)[C@H](Cc1c[nH]c2ccccc12)NC(=O)[C@H](C)NC(=O)[C@H](CC(C)C)NC(=O)[C@H](CC(=O)O)NC(=O)[C@H](CC(=O)O)NC(=O)[C@H](CC(=O)O)NC(=O)[C@H](CO)NC(=S)Nc1ccc2c(c1)C(=O)OC21c2ccc(O)cc2Oc2cc(O)ccc21)C(=O)N[C@@H](C)C(=O)N1CCC[C@H]1C(=O)N[C@@H](CCC(N)=O)C(=O)NCC(=O)N[C@@H](CC(C)C)C(=O)N[C@@H](CCC(N)=O)C(N)=O [FITC_GPR137B] ({FITC}-SDDDLAWNIAPQGLQ-NH2)

Kd ([4]; USP11_DUSP_UBL, FP displacement of the FITC-labelled peptide by unlabelled peptide, read-out: KD): ~207 µM
Molecule: Ac-SAVTYPDWIGQSYSEV-NH2 [ORAI1_USP11]

Kd ([1]; FP displacement by unlabelled peptide): 19.3 µM
Molecule: Ac-VPSLDDFAGQSWSSWVE-NH2 [ATXN7L2_18-34]
